From the NIST ThermoML archive (doi:10.1016/j.jct.2009.07.002)
± gives the expanded uncertainty stated by the source.

Experiment: isobaric coefficient of expansion
Conditions: Liquid, DSC with Pressure Shift

CCCC(C)O (stereo not drawn) [pentan-2-ol]
isobaric coefficient of expansion
Conditions	278.15 K	288.15 K	298.15 K	308.15 K	318.15 K	328.15 K	338.15 K	348.15 K
5000 kPa	0.000883 ± 3.7e-05 1/K	0.000922 ± 3.9e-05 1/K	0.000961 ± 4.1e-05 1/K	0.00101 ± 4.3e-05 1/K	0.00106 ± 4.5e-05 1/K	0.0011 ± 4.7e-05 1/K	0.00114 ± 4.9e-05 1/K	0.00119 ± 5e-05 1/K
10000 kPa	0.000858 ± 3.6e-05 1/K	0.000896 ± 3.8e-05 1/K	0.000935 ± 4e-05 1/K	0.000983 ± 4.2e-05 1/K	0.00103 ± 4.4e-05 1/K	0.00107 ± 4.5e-05 1/K	0.00111 ± 4.7e-05 1/K	0.00115 ± 4.9e-05 1/K
15000 kPa	0.00084 ± 3.6e-05 1/K	0.00088 ± 3.7e-05 1/K	0.000914 ± 3.9e-05 1/K	0.000956 ± 4.1e-05 1/K	0.001 ± 4.2e-05 1/K	0.00103 ± 4.4e-05 1/K	0.00107 ± 4.6e-05 1/K	0.00111 ± 4.7e-05 1/K
20000 kPa	0.000827 ± 3.5e-05 1/K	0.000857 ± 3.6e-05 1/K	0.00089 ± 3.8e-05 1/K	0.000929 ± 3.9e-05 1/K	0.000971 ± 4.1e-05 1/K	0.00101 ± 4.3e-05 1/K	0.00105 ± 4.4e-05 1/K	0.00108 ± 4.6e-05 1/K
25000 kPa	0.000801 ± 3.4e-05 1/K	0.000842 ± 3.6e-05 1/K	0.000872 ± 3.7e-05 1/K	0.000909 ± 3.9e-05 1/K	0.000946 ± 4e-05 1/K	0.000983 ± 4.2e-05 1/K	0.00102 ± 4.3e-05 1/K	0.00105 ± 4.4e-05 1/K
30000 kPa	0.000789 ± 3.3e-05 1/K	0.000823 ± 3.5e-05 1/K	0.000851 ± 3.6e-05 1/K	0.000889 ± 3.8e-05 1/K	0.000923 ± 3.9e-05 1/K	0.000957 ± 4.1e-05 1/K	0.000991 ± 4.2e-05 1/K	0.00102 ± 4.3e-05 1/K
35000 kPa	0.000773 ± 3.3e-05 1/K	0.000805 ± 3.4e-05 1/K	0.000834 ± 3.5e-05 1/K	0.000868 ± 3.7e-05 1/K	0.000902 ± 3.8e-05 1/K	0.000933 ± 4e-05 1/K	0.000967 ± 4.1e-05 1/K	0.000995 ± 4.2e-05 1/K
40000 kPa	0.000756 ± 3.2e-05 1/K	0.000788 ± 3.3e-05 1/K	0.00081 ± 3.4e-05 1/K	0.00085 ± 3.6e-05 1/K	0.000879 ± 3.7e-05 1/K	0.000914 ± 3.9e-05 1/K	0.000941 ± 4e-05 1/K	0.00097 ± 4.1e-05 1/K
45000 kPa	0.000745 ± 3.2e-05 1/K	0.000775 ± 3.3e-05 1/K	0.000799 ± 3.4e-05 1/K	0.00083 ± 3.5e-05 1/K	0.00086 ± 3.7e-05 1/K	0.000889 ± 3.8e-05 1/K	0.00092 ± 3.9e-05 1/K	0.000946 ± 4e-05 1/K
50000 kPa	0.00073 ± 3.1e-05 1/K	0.000758 ± 3.2e-05 1/K	0.000784 ± 3.3e-05 1/K	0.000814 ± 3.5e-05 1/K	0.000841 ± 3.6e-05 1/K	0.000872 ± 3.7e-05 1/K	0.000899 ± 3.8e-05 1/K	0.000923 ± 3.9e-05 1/K
55000 kPa	0.000719 ± 3.1e-05 1/K	0.000745 ± 3.2e-05 1/K	0.000766 ± 3.3e-05 1/K	0.000793 ± 3.4e-05 1/K	0.000819 ± 3.5e-05 1/K	0.000844 ± 3.6e-05 1/K	0.000866 ± 3.7e-05 1/K	0.000888 ± 3.8e-05 1/K
